# Results as given in patent publication US6380181B1, “Synthetic catechol derivatives, method for production and use thereof” (priority 1996, dated 2002).
# What was measured:
# Type in all cases: cell-based
# [1] = test system: Stenotrophomonas maltophilia IMET 10402; test: Agar diffusion test; conditions: concentration 100 μg/ml
# [2] = test system: Stenotrophomonas maltophilia GN 12873; test: Agar diffusion test; conditions: concentration 100 μg/ml
# [3] = test system: Pseudomonas aeruginosa NCTC 10701; test: Agar diffusion test; conditions: concentration 100 μg/ml; P. aeruginosa NCTC 10701
# [4] = test system: Pseudomonas aeruginosa KW 799/61 (penetration mutant); conditions: concentration 100 μg/ml; P. aeruginosa KW799/61
# [5] = test system: E. coli mutant KB5 ompC−
# Source text: (§1) The efficacy against β-lactamase formers and against multi-resistant germs is therefore due to a new type of mechanism for overcoming the penetration resistance, by means of which the ratio of active ingredient to enzyme in the bacterial cell is influenced so that not all antibiotic molecules are inactivated before they reach their target.
# [6] = test system: E. coli mutant KB4 ompF−
# Source text: as §1
# [7] = test system: Pseudomonas aeruginosa NPS1 (plasmid-coded β-lactamase); conditions: concentration 100 μg/ml; P. aeruginosa NPS 1
# [8] = test system: E. coli DC2 (penetration mutant); conditions: concentration 100 μg/ml
# [9] = test system: Klebsiella pneumoniae ATCC 10031; test: Agar diffusion test; conditions: concentration 100 μg/ml
# [10] = test system: Pseudomonas aeruginosa KW 799 WT; test: Microdilution test (MIC); conditions: P. aeruginosa KW 799/WT
# Experimental: (§2) The minimum inhibiting concentrations (MICs) were determined for the following bacterial strains: Pseudomonas aeruginosa NCTC 10701, NCTC 10662, SG 137, ATCC 27853, KW 799 WT and KW 799/61, E. coli DCO, DC2 and ATCC 25922, Serratia marcescens SG 621; Salmonella gallinarum ATCC 9184, Klebsiella pneumoniae ATCC 10031 and SG 117.
# (§3) With the test germs KW 799/WT and /61 of Pseudomonas and DCO and DC2 of E. coli, the effect of improved penetration capacity on the efficacy of the substances was investigated.
# [11] = test system: E. coli DC0; test: Microdilution test (MIC); conditions: Escherichia coli, DC0, read-out: MIC values, microdilution test
# Experimental: as §2, §3
# [12] = test system: Pseudomonas aeruginosa KW 799/61; test: Microdilution test (MIC)
# Experimental: as §2, §3
# [13] = test system: Klebsiella pneumoniae SG 117; test: Agar diffusion test; conditions: concentration 100 μg/ml
# [14] = test system: E. coli AB2847 tonB+
# [15] = test system: Pseudomonas aeruginosa ATCC 27853 (wild type); test: Agar diffusion test; conditions: concentration 100 μg/ml; P. aeruginosa ATCC 27853
# [16] = test system: Salmonella gallinarum ATCC 9184; conditions: concentration 100 μg/ml; Salmonella galinarum ATCC 9184
# [17] = test system: E. coli DC0 (wild type); test: Agar diffusion test; conditions: concentration 100 μg/ml
# [18] = test system: E. coli mutant PLB3268 ompF++; conditions: E. coli mutant PLB3268 ompF++ (ompF super-expressed)
# Source text: as §1
# PLB268: ompF- was super-expressed.
# [19] = test system: Pseudomonas aeruginosa ATCC 9027 (wild type); test: Agar diffusion test; conditions: concentration 100 μg/ml; P. aeruginosa ATCC 9027
# [20] = test system: Pseudomonas aeruginosa SG 137; test: Microdilution test (MIC); conditions: P. aeruginosa SG 137
# Experimental: as §2
# [21] = test system: E. coli ATCC 25922; test: Microdilution test (MIC)
# Experimental: as §2
# [22] = test system: Pseudomonas aeruginosa NCTC 10662; test: Microdilution test (MIC); conditions: Pseudomonas aeruginosa, NCTC10662; P. aeruginosa NCTC 10662
# Experimental: as §2
# [23] = test system: Serratia marcescens SG 621; test: Microdilution test (MIC)
# Experimental: as §2
# [24] = test system: Klebsiella pneumoniae ATCC 10031; test: Microdilution test (MIC)
# Experimental: as §2
# [25] = test system: Pseudomonas aeruginosa ATCC 27853; test: Microdilution test (MIC); conditions: P. aeruginosa ATCC 27853
# Experimental: as §2
# [26] = test system: Pseudomonas aeruginosa NCTC 10701; test: Microdilution test (MIC); conditions: P. aeruginosa NCTC 10701
# Experimental: as §2
# [27] = test system: Klebsiella pneumoniae SG 117; test: Microdilution test (MIC)
# Experimental: as §2
# [28] = test system: Pseudomonas aeruginosa KW 799 WT (wild type); test: Agar diffusion test; conditions: concentration 100 μg/ml; P. aeruginosa KW799/WT
# [29] = test system: Pseudomonas aeruginosa NCTC 10662; test: Agar diffusion test; conditions: concentration 100 μg/ml; P. aeruginosa NCTC 10662
# [30] = test system: Pseudomonas aeruginosa Oxa6 (plasmid-coded β-lactamase); conditions: concentration 100 μg/ml; P. aeruginosa OXA 6
# [31] = test system: E. coli mutant BR185 tonB−
# [32] = test system: Pseudomonas aeruginosa SG 137 (carbenicillin-resistant); test: Agar diffusion test; conditions: concentration 100 μg/ml; P. aeruginosa SG 137
# [33] = test system: E. coli DC2; test: microbe, parasite or virus in culture
# Experimental: as §2, §3
# [34] = test system: Salmonella gallinarum ATCC 9184; test: microbe, parasite or virus in culture; conditions: Salmonella gallinarum ATCC9184
# Experimental: as §2
# [35] = test system: Stenotrophomonas maltophilia GN 12873; test: Microdilution test (MIC); conditions: GN12873
SMILES,inhibition spot diameter in the agar diffusion test [1],inhibition spot diameter in the agar diffusion test [2],inhibition spot diameter in the agar diffusion test [3],inhibition spot diameter in the agar diffusion test [4],inhibition spot diameter in agar diffusion test [5],inhibition spot diameter in agar diffusion test [6],inhibition spot diameter in the agar diffusion test [7],inhibition spot diameter in the agar diffusion test [8],inhibition spot diameter in the agar diffusion test [13],inhibition spot diameter in agar diffusion test [14],inhibition spot diameter in the agar diffusion test [16],inhibition spot diameter in the agar diffusion test [17],inhibition spot diameter in agar diffusion test [18],inhibition spot diameter in the agar diffusion test [19],inhibition spot diameter in the agar diffusion test [28],inhibition spot diameter in the agar diffusion test [29],inhibition spot diameter in the agar diffusion test [30],inhibition spot diameter in agar diffusion test [31],inhibition spot diameter in the agar diffusion test [32],"MIC values, microdilution test [10]",further results
"CC1(C)S[C@@H]2[C@H](NC(=O)[C@H](NC(=O)N3CCNC3=O)c3ccccc3)C(=O)N2[C@H]1C(=O)O [Azlocillin, reference compound]",21 mm,0 mm,27 mm,40 mm,4 mm,6.5 mm,0 mm,33 mm,18 mm,8 mm,21 mm,16 mm,17.5 mm,15 mm,27 mm,17 mm,0 mm,8 mm,17 mm,,"inhibition spot diameter in the agar diffusion test [9]: 15 mm; MIC ([10]; Pseudomonas aeruginosa, KW799WT): 3.12 µg/mL; MIC [11]: 12.5 µg/mL; MIC ([12]; Pseudomonas aeruginosa, KW799/61, P. aeruginosa KW 799/61): 0.2 µg/mL; inhibition spot diameter in the agar diffusion test [15]: 19 mm; MIC ([20]; Pseudomonas aeruginosa, SG137): 6.25 µg/mL; MIC ([21]; Escherichia coli, ATCC25922): 6.25 µg/mL; MIC [22]: 6.25 µg/mL; MIC ([23]; SG621): 50 µg/mL; MIC ([24]; ATCC10031): 6.25 µg/mL; MIC ([25]; Pseudomonas aeruginosa, ATCC27853): 6.25 µg/mL; MIC ([26]; Pseudomonas aeruginosa, NCTC10701): 0.2 µg/mL; MIC ([27]; SG117): 6.25 µg/mL; MIC ([33]; Escherichia coli, read-out: MIC values, microdilution test): 0.78 µg/mL; MIC ([34]; Salmonella enterica, read-out: MIC values, microdilution test): 3.12 µg/mL; MIC [35]: 25 to 100 µg/mL"
"CC(=O)Oc1cccc(C(=O)N[C@@H](C)C(=O)N[C@@H](C(=O)N[C@@H]2C(=O)N3[C@@H]2SC(C)(C)[C@@H]3C(=O)O)c2ccccc2)c1OC(C)=O [Substance 27, N-[L-2-(2,3-Diacetoxybenzoylamino)-propionyl]-ampicillin]",29 mm,22 mm,0 mm,37 mm,7.5 mm,8.5 mm,10 mm,30 mm,17 mm,7 mm,24 mm,21 mm,14 mm,19 mm,30 mm,16 mm,12 mm,1 mm,22 mm,0.78 µg/mL,"MIC values, microdilution test [12]: 0.2 µg/mL; MIC values, microdilution test [20]: 3.12 µg/mL; MIC values, microdilution test [21]: 6.25 µg/mL; MIC values, microdilution test [23]: 50 µg/mL; MIC values, microdilution test [24]: 0.4 µg/mL; MIC values, microdilution test [25]: 6.25 µg/mL; MIC values, microdilution test [26]: 0.4 µg/mL; MIC values, microdilution test [27]: 50 µg/mL; MIC values, microdilution test [33]: 0.4 µg/mL; MIC values, microdilution test [34]: 1.56 µg/mL"
"CC(=O)Oc1cccc(C(=O)Nc2ccccc2C(=O)N[C@@H](C(=O)N[C@@H]2C(=O)N3[C@@H]2SC(C)(C)[C@@H]3C(=O)O)c2ccccc2)c1OC(C)=O [Substance 28, N-[2-(2,3-Diacetoxybenzoylamino)-benzoyl]-ampicillin]",24 mm,20 mm,,31 mm,11 mm,11.5 mm,18 mm,27 mm,17 mm,8.5 mm,,23 mm,13 mm,18 mm,27 mm,17 mm,19 mm,0 mm,20 mm,1.56 µg/mL,"MIC values, microdilution test [12]: 0.4 µg/mL; MIC values, microdilution test [20]: 1.56 µg/mL; MIC values, microdilution test [23]: 6.25 µg/mL; MIC values, microdilution test [26]: 0.78 µg/mL; MIC values, microdilution test [27]: 25 µg/mL; MIC values, microdilution test [33]: 0.4 µg/mL; MIC values, microdilution test [34]: 1.56 µg/mL"
